{
  "source": "patent EP0660840B1",
  "about": "(priority 1992, dated 1994)",
  "key": {"[1]": {"system": "DOCA-salt hypertensive rats", "test": "Antihypertensive effect in DOCA-salt hypertensive rats", "assay_type": "in vivo", "details": "10 mg/Kg p.o., in PEG 400; DOCA-salt hypertensive rat model", "experimental": "The antihypertensive effect can be determined in desoxycorticosterone acetate (DOCA)-salt hypertensive rats.\nDOCA-salt hypertensive rats (280-380 g) are prepared by the standard method. Rats underwent a unilateral nephrectomy and one week later are implanted with silastic pellets containing 100 mg/kg of DOCA. The rats are maintained on 1% NaCl/0.2% KCI drinking water for three to five weeks until sustained hypertension is established. The antihypertensive activity is evaluated at this time.\nTwo days before an experiment, the rats are anesthetized with methoxyflurane and instrumented with catheters in the femoral artery to measure arterial blood pressure. Forty-eight hours later, baseline arterial pressure and heart rate are recorded during a 1 hour period. The test compound or vehicle is then administered and the same cardiovascular parameters are monitored for an additional 5 hours."}, "plasma ANF": {"system": "plasma ANF", "test": "Effect on rat plasma ANF concentration during continuous ANF infusion (radioimmunoassay)", "assay_type": "in vivo, Male Sprague-Dawley rats", "details": "about 10 mg/kg p.o., in 10% ethanol/polyethylene glycol 400; conscious rats infused with ANF 450 ng/kg/min i.v.", "experimental": "The effect of the compounds of the invention on rat plasma ANF concentration can be determined as follows:\nMale Sprague-Dawley rats (275-390 g) are anesthetized with ketamine (150 mg/kg)/acepromazine (10%) and instrumented with catheters in the femoral artery and vein to obtain blood samples and infuse ANF, respectively. The rats are tethered with a swivel system and are allowed to recover for 24 hours before being studied in the conscious, unrestrained state.\nIn this assay, plasma ANF levels are determined in the presence and absence of NEP inhibition. On the day of study, all rats are infused continuously with ANF at 450 ng/kg/min. i.v. for the entire 5 hours of the experiment. Sixty minutes after beginning the infusion, blood samples for baseline ANF measurements are obtained (time 0) and the rats are then randomly divided into groups treated with the test compound or vehicle. Additional blood samples are taken 30, 60, 120, 180 and 240 minutes after administration of the test compound.\nPlasma concentrations are determined by a specific radioimmunoassay. […] The supernatant is decanted and the pellets counted in a gamma counter. […] Plasma ANF levels are expressed as a percent of those measured in vehicle-treated animals which received ANF alone (450 ng/kg/min i.v.)."}},
  "data": [
    {"compound": "O=P(CN[C@@H](Cc1ccc(-c2ccccc2)cc1)c1nnn[nH]1)(Oc1ccccc1)Oc1ccccc1", "note": "[Example 3, (S)-[2-Biphenyl-4-yl-1-(1H-tetrazol-5-yl)-ethylamino]-methylphosphonic acid diphenyl ester]", "values": [
      {"measurement": "blood pressure", "setting": "[1]", "result": "significant reduction"},
      {"measurement": "plasma ANF levels", "setting": "plasma ANF", "result": "significant increases"}
    ]}
  ]
}
